Laboratory results as given in PubChem BioAssay AID1963825 (Molecular Pharmacology Branch, DTP, NCI, 2024).

Test: Anticancer human tumor 997537-175-T-J1-PDC patient-derived colon adenocarcinoma cell line growth inhibition [POLQ]
Settings: 997537-175-T-J1-PDC complex spheroid viability, combination with POLQ inhibitors; for IC50: curve of first compound; for viability, T/C: stronger effect = lower value
Method in brief: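 Patient-derived tumour cells were co-cultured with HUVEC and mesenchymal stem cells as multicellular spheroids at 37 °C. They were treated with POLQ inhibitors (novobiocin, ART-558, RP6685) alone or combined with other agents. Top concentrations were at or near clinical Cmax (otherwise 10 microM; SN-38 at 1 microM), decreasing in half-log steps.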

[1] = second compound 0.0316 µM, first compound 0.0316 µM
[2] = second compound 0.0316 µM, first compound 0.1 µM
[3] = second compound 0.0316 µM, first compound 0.316 µM
[4] = second compound 0.0316 µM, first compound 1 µM
[5] = second compound 0.0316 µM, first compound 3.16 µM
[6] = second compound 0.0316 µM, first compound 10 µM
[7] = second compound 0.1 µM, first compound 0.0316 µM
[8] = second compound 0.1 µM, first compound 0.1 µM
[9] = second compound 0.1 µM, first compound 0.316 µM
[10] = second compound 0.1 µM, first compound 1 µM
[11] = second compound 0.1 µM, first compound 3.16 µM
[12] = second compound 0.1 µM, first compound 10 µM
[13] = second compound 0.316 µM, first compound 0.0316 µM
[14] = second compound 0.316 µM, first compound 0.1 µM
[15] = second compound 0.316 µM, first compound 0.316 µM
[16] = second compound 0.316 µM, first compound 1 µM
[17] = second compound 0.316 µM, first compound 3.16 µM
[18] = second compound 0.316 µM, first compound 10 µM
[19] = second compound 1 µM, first compound 0.0316 µM
[20] = second compound 1 µM, first compound 0.1 µM
[21] = second compound 1 µM, first compound 0.316 µM
[22] = second compound 1 µM, first compound 1 µM
[23] = second compound 1 µM, first compound 3.16 µM
[24] = second compound 1 µM, first compound 10 µM
[25] = second compound 3.16 µM, first compound 0.0316 µM
[26] = second compound 3.16 µM, first compound 0.1 µM
[27] = second compound 3.16 µM, first compound 0.316 µM
[28] = second compound 3.16 µM, first compound 1 µM
[29] = second compound 3.16 µM, first compound 3.16 µM
[30] = second compound 3.16 µM, first compound 10 µM
[31] = second compound 10 µM, first compound 0.0316 µM
[32] = second compound 10 µM, first compound 0.1 µM
[33] = second compound 10 µM, first compound 0.316 µM
[34] = second compound 10 µM, first compound 1 µM
[35] = second compound 10 µM, first compound 3.16 µM
[36] = second compound 10 µM, first compound 10 µM
[37] = second compound 0.0316 µM, first compound 0.00316 µM
[38] = second compound 0.0316 µM, first compound 0.01 µM
[39] = second compound 0.1 µM, first compound 0.00316 µM
[40] = second compound 0.1 µM, first compound 0.01 µM
[41] = second compound 0.316 µM, first compound 0.00316 µM
[42] = second compound 0.316 µM, first compound 0.01 µM
[43] = second compound 1 µM, first compound 0.00316 µM
[44] = second compound 1 µM, first compound 0.01 µM
[45] = second compound 3.16 µM, first compound 0.00316 µM
[46] = second compound 3.16 µM, first compound 0.01 µM
[47] = second compound 10 µM, first compound 0.00316 µM
[48] = second compound 10 µM, first compound 0.01 µM
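Note: luminescence signal used as a surrogate for viable cells; spheroids exposed to drugs for seven days before readout.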

CNCc1ccc(-c2[nH]c3cc(F)cc4c3c2CCNC4=O)cc1 + COC1C(OC(N)=O)C(O)C(Oc2ccc3c(O)c(NC(=O)c4ccc(O)c(CC=C(C)C)c4)c(=O)oc3c2C)OC1(C)C
IC50 (second compound 0.0316 µM): > 10 µM
IC50 (second compound 0.1 µM): > 10 µM
IC50 (second compound 0.316 µM): > 10 µM
IC50 (second compound 1 µM): > 10 µM
IC50 (second compound 3.16 µM): > 10 µM
IC50 (second compound 10 µM): > 10 µM
viability, T/C [1]: 104%
viability, T/C [2]: 96.7%
viability, T/C [3]: 90.3%
viability, T/C [4]: 97.5%
viability, T/C [5]: 101%
viability, T/C [6]: 104%
viability, T/C [7]: 102%
viability, T/C [8]: 97%
viability, T/C [9]: 80.2%
viability, T/C [10]: 97.9%
viability, T/C [11]: 103%
viability, T/C [12]: 106%
viability, T/C [13]: 100%
viability, T/C [14]: 101%
viability, T/C [15]: 93.6%
viability, T/C [16]: 87%
viability, T/C [17]: 95.5%
viability, T/C [18]: 78.3%
viability, T/C [19]: 94.7%
viability, T/C [20]: 101%
viability, T/C [21]: 101%
viability, T/C [22]: 92.8%
viability, T/C [23]: 99.3%
viability, T/C [24]: 84.1%
viability, T/C [25]: 97.8%
viability, T/C [26]: 98.1%
viability, T/C [27]: 104%
viability, T/C [28]: 101%
viability, T/C [29]: 85.8%
viability, T/C [30]: 86.8%
viability, T/C [31]: 99.5%
viability, T/C [32]: 95.9%
viability, T/C [33]: 105%
viability, T/C [34]: 96.6%
viability, T/C [35]: 97.5%
viability, T/C [36]: 90.3%

C=CCn1c(=O)c2cnc(Nc3ccc(N4CCN(C)CC4)cc3)nc2n1-c1cccc(C(C)(C)O)n1 + COC1C(OC(N)=O)C(O)C(Oc2ccc3c(O)c(NC(=O)c4ccc(O)c(CC=C(C)C)c4)c(=O)oc3c2C)OC1(C)C
IC50 (second compound 0.0316 µM): > 1 µM
IC50 (second compound 0.1 µM): > 1 µM
IC50 (second compound 0.316 µM): > 1 µM
IC50 (second compound 1 µM): > 1 µM
IC50 (second compound 3.16 µM): > 1 µM
IC50 (second compound 10 µM): > 1 µM
viability, T/C [37]: 92.8%
viability, T/C [38]: 102%
viability, T/C [1]: 105%
viability, T/C [2]: 92.1%
viability, T/C [3]: 105%
viability, T/C [4]: 71%
viability, T/C [39]: 115%
viability, T/C [40]: 106%
viability, T/C [7]: 91.9%
viability, T/C [8]: 92.2%
viability, T/C [9]: 81.7%
viability, T/C [10]: 66.2%
viability, T/C [41]: 88.5%
viability, T/C [42]: 101%
viability, T/C [13]: 103%
viability, T/C [14]: 103%
viability, T/C [15]: 92.5%
viability, T/C [16]: 56.5%
viability, T/C [43]: 103%
viability, T/C [44]: 98.6%
viability, T/C [19]: 98.2%
viability, T/C [20]: 90.3%
viability, T/C [21]: 102%
viability, T/C [22]: 87.8%
viability, T/C [45]: 115%
viability, T/C [46]: 93.9%
viability, T/C [25]: 96.6%
viability, T/C [26]: 99.1%
viability, T/C [27]: 90.2%
viability, T/C [28]: 64.1%
viability, T/C [47]: 98%
viability, T/C [48]: 82.5%
viability, T/C [31]: 93.3%
viability, T/C [32]: 81.4%
viability, T/C [33]: 78.5%
viability, T/C [34]: 56.4%

CCc1c2c(nc3ccc(O)cc13)-c1cc3c(c(=O)n1C2)COC(=O)[C@]3(O)CC + Cc1cccc(N(C)C(=O)C2C(O)CCN2c2nc(C)cc(C(F)(F)F)c2C#N)c1
IC50 (second compound 0.0316 µM): 0.0197 µM
IC50 (second compound 0.1 µM): 0.0181 µM
IC50 (second compound 0.316 µM): 0.0217 µM
IC50 (second compound 1 µM): 0.0153 µM
IC50 (second compound 3.16 µM): 0.0173 µM
IC50 (second compound 10 µM): 0.0189 µM
viability, T/C [37]: 81.5%
viability, T/C [38]: 68.8%
viability, T/C [1]: 36.7%
viability, T/C [2]: 13.7%
viability, T/C [3]: 5.85%
viability, T/C [4]: 4.36%
viability, T/C [39]: 86.2%
viability, T/C [40]: 70.1%
viability, T/C [7]: 30.7%
viability, T/C [8]: 11.7%
viability, T/C [9]: 6.03%
viability, T/C [10]: 4.13%
viability, T/C [41]: 82.7%
viability, T/C [42]: 77.2%
viability, T/C [13]: 35.8%
viability, T/C [14]: 15.8%
viability, T/C [15]: 5.26%
viability, T/C [16]: 5.26%
viability, T/C [43]: 79.8%
viability, T/C [44]: 59.5%
viability, T/C [19]: 33.5%
viability, T/C [20]: 14.4%
viability, T/C [21]: 5.49%
viability, T/C [22]: 5.83%
viability, T/C [45]: 91.5%
viability, T/C [46]: 65.3%
viability, T/C [25]: 33%
viability, T/C [26]: 14.8%
viability, T/C [27]: 6.21%
viability, T/C [28]: 5.14%
viability, T/C [47]: 81.4%
viability, T/C [48]: 63%
viability, T/C [31]: 39.5%
viability, T/C [32]: 18.7%
viability, T/C [33]: 5.71%
viability, T/C [34]: 7.45%

O=c1[nH]cc(F)c(=O)[nH]1 + Cc1cccc(N(C)C(=O)C2C(O)CCN2c2nc(C)cc(C(F)(F)F)c2C#N)c1
IC50 (second compound 0.0316 µM): > 10 µM
IC50 (second compound 0.1 µM): > 10 µM
IC50 (second compound 0.316 µM): > 10 µM
IC50 (second compound 1 µM): > 10 µM
IC50 (second compound 3.16 µM): > 10 µM
IC50 (second compound 10 µM): > 10 µM
viability, T/C [1]: 84.2%
viability, T/C [2]: 109%
viability, T/C [3]: 95.8%
viability, T/C [4]: 96.7%
viability, T/C [5]: 94.6%
viability, T/C [6]: 79.7%
viability, T/C [7]: 95.8%
viability, T/C [8]: 87.7%
viability, T/C [9]: 103%
viability, T/C [10]: 108%
viability, T/C [11]: 103%
viability, T/C [12]: 98.4%
viability, T/C [13]: 95%
viability, T/C [14]: 96%
viability, T/C [15]: 112%
viability, T/C [16]: 98.4%
viability, T/C [17]: 94.9%
viability, T/C [18]: 83.3%
viability, T/C [19]: 104%
viability, T/C [20]: 82.8%
viability, T/C [21]: 94.7%
viability, T/C [22]: 87.5%
viability, T/C [23]: 87.3%
viability, T/C [24]: 91.5%
viability, T/C [25]: 95%
viability, T/C [26]: 99%
viability, T/C [27]: 98.8%
viability, T/C [28]: 87.8%
viability, T/C [29]: 95.3%
viability, T/C [30]: 79.6%
viability, T/C [31]: 93.1%
viability, T/C [32]: 96.4%
viability, T/C [33]: 103%
viability, T/C [34]: 95.1%
viability, T/C [35]: 89.8%
viability, T/C [36]: 71.8%
